Results reported in US12565467B2, “Compounds, compositions, and methods for the treatment of inflammatory, degenerative, and neurodegenerative diseases” (Board of Supervisors of Louisiana State University and …, priority 2015, dated 2026).
Entries after “also recorded” stand apart in the source; their conditions may differ.

Key:
ARPE-19 cells = assay: Oxidative stress induced apoptosis / cell death in ARPE-19 cells; assay type: cell-based, human; settings: stressed ARPE-19 cells treated with 5 μm of 15-LOX-D1 inhibitor PD146176
Method: (§1) FIG. 5. (A) Effect of PD146176 on VLC-PUFA-inhibited apoptosis induced by OS in ARPE-19 cells. […] It is evident that 32:6 and 34:6 LCAF were able to induce a substantial amount (55 and 48% respectively) of neuroprotection compared to PD 146176 (22%) when the stressed cells were treated with 5 μm of 15-LOX-D1 inhibitor. It can be concluded that since PD146176 is the inhibitor of 15-lipooxygenase enzyme, it might be protecting the stressed RPE cells by accumulating neuroprotective agents inside the cells. (B) Comparison of cytoprotective capacities of NPD1, C32:6 and C34:6 VLC-PUFA on oxidative stress-induced apoptosis in 15-LOX-1 cells. Shown here is the comparison of neuroprotection in a 15-LOX-1-deficient cell line under oxidative stress with 32:6 and 34:6 VLC-PUFA along with NPD1. 32:6 and 34:6 LCAF were able to induce neuroprotection (45% and 40% respectively), as compared to oxidative stress (90%) under this condition. (C) Concentration dependent cytoprotection by C32:6 and C34:6 VLC-PUFA in oxidative-stress induced ARPE-19 cells. A concentration (50-500 nM) kinetic of cytoprotection induced by LCAF 32:6 and 34:6 in RPE cell culture under OS was shown here. […] We decided to use 250 nM concentrations of 32:6 and 34:6 LCAF in subsequent experiments. (D) Selected images of alive and dead cells from this study (control, OS, treatment with C32:6).
(§2) FIG. 5—(A) Effect of PD146176 on VLC-PUFA inhibited apoptosis induced by OS in ARPE-19 cells. […] It is evident that 32:6 and 34:6 LCAF were able to induce a substantial amount (55 and 48% respectively) of neuroprotection compared to PD 146176 (22%) when the stressed cells were treated with 5 μm of 15-LOX-D1 inhibitor. It can be concluded that since PD146176 is the inhibitor of 15-lipooxygenase enzyme, it might be protecting the stressed RPE cells by accumulating neuroprotective agents inside the cells. (B) Comparison of cytoprotective capacities of NPD1, C32:6 and C34:6 VLC-PUFA on oxidative stress-induced apoptosis in 15-LOX-1 cells. Shown here is the comparison of neuroprotection in a 15-LOX-1-deficient cell line under oxidative stress with 32:6 and 34:6 VLC-PUFA along with NPD1. 32:6 and 34:6 VLC-PUFA were able to induce neuroprotection (45% and 40% respectively), as compared to oxidative stress (90%) under this condition. (C) Concentration dependent cytoprotection by C32:6 and C34:6 VLC-PUFA in oxidative-stress induced ARPE-19 cells. A concentration (50-500 nM) kinetic of cytoprotection induced by VLC-PUFA 32:6 and 34:6 in RPE cell culture under OS was shown here. […] We decided to use 250 nM concentrations of 32:6 and 34:6 VLC-PUFA in subsequent experiments. (D) Selected images of alive and dead cells from this study (control, OS, treatment with C32:6).

[1] = test system: human retinal pigment epithelial (RPE) cells deficient in 15-LOX-D1; assay: Oxidative stress (OS) induced apoptosis / cell death in 15-LOX-1-deficient human RPE cells; assay type: cell-based
Description: (§3) FIG. 4. (A) Cytoprotective effects of NPD1 like compounds on OS induced apoptosis. The results shown in this figure compare the cytoprotective capacities of long chain polyunsaturated fatty acids (VLC-PUFA), elovanoids ELV1 and ELV2, and neuroprotectin D1 (NPD1) in human retinal pigment epithelial (RPE) cells deficient in 15-LOX-D1 by measuring the protection of cell deaths induced by oxidative stress (OS) by these compounds. […] (B) Elovanoid precursors protect human retinal pigment epithelial cells deficient in 15-LOX-1, unlike DHA, from oxidative stress conditions.
as §1
as §3, with “Evidence of cytoprotection by 32.6 and 34.6 VLC-PUFA in oxidative-stress induced ARPE-19 cells as detailed in (FIG. 4): (A) Cytoprotective” for “FIG. 4. (A) Cytoprotective”, “capacities of very long chain” for “capacities of long chain”
as §2, with “(D) Selected images of alive and dead cells from this study (control, OS, treatment with C32:6).” left out

[2] = test system: neuronal cells in primary cultures; assay: NMDA-induced toxicity in neuronal cells in primary culture, MTT assay for cell viability; assay type: cell-based; settings: MK-801 with ELV2; NMDA receptor blocker used as control
Description: FIG. 11. […] In several neurological and neurodegenerative diseases, such as stroke, epilepsy, status epilepticus, traumatic head injury, etc., as well as ophthalmological diseases, such as glaucoma, an excessive presynaptic release of the excitatory neurotransmitter glutamate takes place. As a consequence, glutamate transporters that function to remove extracellular glutamate from astrocytes and neurons are overwhelmed and the NMDA-type glutamate receptor is over-activated. This receptor is a calcium channel that therefore leads to a flooding of calcium into the postsynaptic cell. The overall phenomena is refer to as excitotoxicity that in turn leads to neuronal damage and cell death. MK801 is a known blocker of this receptor used here as a control.
In several neurological and neurodegenerative diseases, such as stroke, epilepsy, status epilepticus, traumatic head injury, etc., as well as ophthalmological diseases, such as glaucoma, an excessive presynaptic release of the excitatory neurotransmitter glutamate takes place. As a consequence, glutamate transporters that function to remove extracellular glutamate from astrocytes and neurons are overwhelmed and the NMDA-type glutamate receptor is over-activated. This receptor is a calcium channel that therefore leads to a flooding of calcium into the postsynaptic cell. The overall phenomena is refer to as excitotoxicity that in turn leads to neuronal damage and cell death. MK801 is a known blocker of this receptor used here as a control.

ischemic stroke (MCAo) = assay: Ischemic stroke model, 2 h MCAo, neurological score during 7 days; assay type: in vivo; settings: rat; for activity relative to DHA and NPD1, neurological score (FIG. 12): one hour after 2 h MCAo, 7 days; for in vivo neuroprotective effect (FIG. 12): ICV after 2 hours of MCAo
Method: FIG. 12. […] To test the novel elovanoids the experimental design consisted injecting the compounds into the right cerebral ventricle (5 μg/per rat, ICV), one hour after two hours of an ischemic stroke in rats and following thereafter the neurological behavior (neurological score) during 7 days. The protocol in brief was as follows. The injection was made through a surgically implanted metal canula (Alzet) into the right lateral ventricle. Two days later the right middle cerebral artery (MCA) was occluded for 2 h by means of an intraluminal nylon filament (Belayev et al, Traslational Stroke Research, 2010). Then one hour after the compounds were injected dissolved in sterile cerebrospinal fluid. The occlusion was transient performed as follows. The right common carotid artery was exposed through an incision in the neck and was isolated from surrounding tissues. The distal external carotid artery and pterygopalatine arteries were tied. A 4-cm of 3-0 monofilament nylon suture coated with poly-Lysine was introduced into the internal carotid artery and MCA. The suture position was confirmed by advancing the suture 20-22 mm from the common carotid artery bifurcation. Then, the rats were allowed to awaken from anesthesia and returned to their cages. The degree of stroke injury was assessed by neurological assessment of each rat at 60 min after onset of MCAo. […] After 2 hours of MCA occlusion, the rats were re-anesthetized temperature probes were reinserted and the intraluminal suture was removed. The neck incision was closed with silk sutures, and the animals were allowed free access to food and water. […] The methyl ester ELV2-Me is expected to first be hydrolyzed via the actions of esterases, and it may have a more delayed effect, which may be beneficial for a sustainable long-term treatment.
To test the novel elovanoids the experimental design consisted injecting the compounds into the right cerebral ventricle (5 μg/per rat, ICV), one hour after two hours of an ischemic stroke in rats and following thereafter the neurological behavior (neurological score) during 7 days. The protocol in brief was as follows. The injection was made through a surgically implanted metal canula (Alzet) into the right lateral ventricle. Two days later the right middle cerebral artery (MCA) was occluded for 2 h by means of an intraluminal nylon filament (Belayev et al, Traslational Stroke Research, 2010). Then one hour after the compounds were injected dissolved in sterile cerebrospinal fluid. The occlusion was transient performed as follows. The right common carotid artery was exposed through an incision in the neck and was isolated from surrounding tissues. The distal external carotid artery and pterygopalatine arteries were tied. A 4-cm of 3-0 monofilament nylon suture coated with poly-Lysine was introduced into the internal carotid artery and MCA. The suture position was confirmed by advancing the suture 20-22 mm from the common carotid artery bifurcation. Then, the rats were allowed to awaken from anesthesia and returned to their cages. The degree of stroke injury was assessed by neurological assessment of each rat at 60 min after onset of MCAo. […] After 2 hours of MCA occlusion, the rats were re-anesthetized temperature probes were reinserted and the intraluminal suture was removed. The neck incision was closed with silk sutures, and the animals were allowed free access to food and water. […]

SMILES: c1ccc2c(c1)SCc1c-2[nH]c2ccccc12 [PD 146176, reference compound]
- neuroprotection (FIG. 5A) (ARPE-19 cells): 22%

SMILES: CC/C=C\C[C@H](O)\C=C/C=C/C=C/[C@H](O)C/C=C\C/C=C\CCC(=O)O [NPD1, 10R,17S-dihydroxy-docosa-4Z,7Z,11E,13E,15Z,19Z-hexaenoic acid, reference compound]
- protection of cell deaths induced by oxidative stress (FIG. 4A) ([1]; 15-LOX-1-deficient human RPE cells, compared to OS (90%)): 60%
- protection against cell death under oxidative stress conditions (FIG. 4B) ([1]; 15-LOX-D1 cells under oxidative stress): protect against cell death

SMILES: C[C@]12N[C@H](Cc3ccccc31)c1ccccc12 [MK-801, reference compound]
- effect of MK-801 on protection, MTT assay for cell viability (FIG. 11B) [2]: potentiates protection

SMILES: CC/C=C\C[C@H](O)\C=C/C=C/C=C/[C@H](O)C/C=C\C/C=C\CCCCCCCCCCCCCCC(=O)OC [ELV2-Me, methyl (16Z,19Z,22R,23E,25E,27Z,29S,31Z)-22,29-dihydroxy-tetratriaconta-16,19,23,25,27,31-hexaenoate]
- activity relative to DHA and NPD1, neurological score (FIG. 12) (ischemic stroke (MCAo); 5 μg/per rat ICV): more active than DHA and NPD1; also recorded: greater in vivo potency than DHA or NPD1
- in vivo neuroprotective effect (FIG. 12) (ischemic stroke (MCAo)): potent in vivo neuroprotective effects

SMILES: CC/C=C\C[C@H](O)\C=C/C=C/C=C/[C@H](O)C/C=C\C/C=C\CCCCCCCCCCCCCCC(=O)O [ELV2-Na, sodium (16Z,19Z,22R,23E,25E,27Z,29S,31Z)-22,29-dihydroxytetratriaconta-16,19,23,25,27,31-hexaenoate]
- potency of sodium salt versus methyl ester in stroke model (FIG. 12) (ischemic stroke (MCAo); 5 μg/per rat ICV): greater potency
- activity relative to DHA and NPD1, neurological score (FIG. 12) (ischemic stroke (MCAo); 5 μg/per rat ICV): more active than DHA and NPD1; also recorded: greater in vivo potency than DHA or NPD1
- in vivo neuroprotective effect (FIG. 12) (ischemic stroke (MCAo)): potent in vivo neuroprotective effects
